Assay results published in patent US9120094B2, “Polymerization of bis[3-(diethoxyphosphoryl)propyl]diallylammonium chloride” (King Fahd University of Petroleum and Minerals, priority 2013, dated 2015).

Tests used:
[1] = Potentiometric titration for protonation (basicity) constants; type: physicochemical; conditions: monomer, 0.0175M NaCl at 23° C.
Description: Procedure for the determination of the protonation constants (K1, K2 and K3) of the polyzwitterion/trianion (PZTAN) 10 (Z^±≡) and K1, K2 and K4 of its corresponding monomer ZTAN 15 (Z^±≡) by potentiometric titrations, carried out in an atmosphere of N2 in CO2-free water, is described elsewhere (Al-Muallem, H. A.; Wazeer M. I. M.; Ali, S. A. Polymer, 2002, 43, 4285—incorporated herein by reference in its entirety). A certain mmol of PZA 7 (ZH3^±) or 11 (ZH4^+) in 200 cm^3 of 0.0175 M NaCl was used in each trial (Tables 3 and 4). As the polymer was insoluble in salt-free water, it (≈100 mg) was first dissolved in 1 M NaCl (3.5 mL) and then diluted to 200 mL to make the polymer solution in 0.0175 M NaCl. For the sake of comparison the NaCl strength of water-soluble monomer 11 was also kept at 0.0175 M.
The Log K1, Log K2 and Log K3 of the respective protonation of ^2−O3P—X^+—PO3^2− [in (±≡) PZTAN 10], ^2O3P—X^+—PO3H^− [in (±=) (PZDAN) 9] and ^−HO3P—X^+—PO3H^− [(in (±−) plyzwitterion/anion (PZAN) 8] were calculated at each pH value by the Henderson-Hasselbalch eq 2 (Scheme 2) where the degree of protonation (α) is the ratios [ZH^±=]eq/[Z]o, [ZH2^±−]eq/[Z]o and [ZH3^±]eq/[Z]o, respectively. The [ZH^±=]eq, [ZH2^±−]eq and [ZH3^±]eq represent the respective equilibrium concentrations of the first (9), second (8) and third protonated species (7) whereas [Z]o describes the initial concentration of repeating units.
For the determination of the third step [8 (ZH2^±−)+H^+⇄7 (ZH3^±)] protonation constant (log K3) using the titration of PZA 7 [ZH3^±] with NaOH, α represents the ratio [ZH3^±]eq/[Z]o whereby [Z]o and [ZH3^±]eq are related by [ZH3^±]eq=[Z]o—COH^−—[H^+]+[OH^−], where COH^− represent the added NaOH concentration. The equilibrium [H^+] and [OH^−] values were calculated from the pH value. Continuing the titration, the second step [9 (ZH^±=)+H^+⇄8 (ZH2^±−)] protonation constant (log K2) was determined using volume of the titrant after deducting the equivalent volume from the total volume. […]

[2] = Solubility behavior of polymers in solvents; type: physicochemical; conditions: water (salt-free)
Procedure: After stirring a mixture of PZ 5 or PZA 7 (2 w/w %) in a solvent at 70° C. […] Table II is presented below.

Row | Log Ki^o (log K4) ([1]; fourth step 12 (ZH3±) to 11 (ZH4+), approximate, 2[Z]o used) | Log Ki^o (log K2) ([1]; second step protonation) | Log Ki^o (log K1) ([1]; titration of 11 (ZH4+) with NaOH, first step protonation of 15) | Solubility in words [2] | SMILES
1 | 2.30 | 7.43 | 9.78 |  | C=CC[N+](CC=C)(CCCP(=O)([O-])[O-])CCCP(=O)([O-])[O-].[Na+].[Na+].[Na+] [compound 15]
2 |  |  |  | water-soluble | C=CC[N+](CC=C)(CCCP(=O)(O)O)CCCP(=O)(O)O.[Cl-] [compound 11]
